The target of this assay is T1, mNpr1 (Mus musculus, UniProt P18293).
T1 construct: host or cells: HEK-293, transient co-transfection with pGS-40F
T1 sequence (P18293 29-1057): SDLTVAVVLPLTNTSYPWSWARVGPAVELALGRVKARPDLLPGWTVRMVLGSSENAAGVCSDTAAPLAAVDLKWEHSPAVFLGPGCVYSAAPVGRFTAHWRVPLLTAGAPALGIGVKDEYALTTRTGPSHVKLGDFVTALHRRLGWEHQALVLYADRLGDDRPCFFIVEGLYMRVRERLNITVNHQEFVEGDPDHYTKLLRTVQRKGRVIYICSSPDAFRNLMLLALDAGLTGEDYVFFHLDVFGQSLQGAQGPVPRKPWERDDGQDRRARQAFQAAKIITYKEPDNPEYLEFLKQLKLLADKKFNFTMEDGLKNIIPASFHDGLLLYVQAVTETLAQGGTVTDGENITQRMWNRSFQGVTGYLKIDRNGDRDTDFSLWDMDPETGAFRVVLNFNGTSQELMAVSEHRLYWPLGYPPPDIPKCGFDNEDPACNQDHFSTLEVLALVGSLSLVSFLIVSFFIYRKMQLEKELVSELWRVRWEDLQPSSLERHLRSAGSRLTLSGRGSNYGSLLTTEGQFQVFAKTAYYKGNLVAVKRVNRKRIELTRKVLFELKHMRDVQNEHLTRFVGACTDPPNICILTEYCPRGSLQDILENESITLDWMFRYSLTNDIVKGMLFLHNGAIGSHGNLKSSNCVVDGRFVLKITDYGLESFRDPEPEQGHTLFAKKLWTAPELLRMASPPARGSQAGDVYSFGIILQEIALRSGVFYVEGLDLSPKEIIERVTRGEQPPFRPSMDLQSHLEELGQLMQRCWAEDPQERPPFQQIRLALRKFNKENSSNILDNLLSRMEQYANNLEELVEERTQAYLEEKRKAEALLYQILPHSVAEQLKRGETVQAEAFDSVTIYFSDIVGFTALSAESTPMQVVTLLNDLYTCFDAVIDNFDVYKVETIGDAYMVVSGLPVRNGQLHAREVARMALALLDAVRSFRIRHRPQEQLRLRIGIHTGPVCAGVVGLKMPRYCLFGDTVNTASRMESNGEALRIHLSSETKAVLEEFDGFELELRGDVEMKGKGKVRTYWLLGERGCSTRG
Description: GloSensor assay, HEK-293 cells transiently expressing mNpr1 and pGS-40F. It is filed as cell-based. The following applies: for IC50: 1 nM mNppb 5 minutes after compound, read-out: IC50 [μM] (mean ± SEM), mNpr1; for Ki: calculated with Cheng-Prusoff equation from Table 6, read-out: Ki mNpr1 GloSensor™ [μM] (mean ± SEM). As to the method: HEK-293 cells (American Type Culture Collection “ATTC,” Manassas, Va.) were cultured in DMEM/F12 supplemented with 2 mM L-glutamine, 10% FBS, 100 U/ml penicillin, and 100 μg/ml streptomycin. For transient expression, 8×10^5 cells were seeded in 6-wells, cultured for 24 hours, and then transfected using TransIT®-293 (Mirus, Madison, Wis.) according to the manufacturer's instructions. After transfection (48 hours), cells were used to measure intracellular cGMP production. HEK-293 cell clones stably expressing pGloSensor™-40F alone (HEK-cGMP-sensor cells) or in addition, human Npr1 (“hNpr1”) (HEK-hNpr1-cGMP-sensor cells) or human Npr2 (HEK-hNpr2-cGMP-sensor cells) were generated by co-transfection with pEAK8-GFP and selection with 1 μg/ml puromycin. Stable expression of transgenes was verified by measuring ligand-induced cGMP production with the cGMP biosensor.
Before the measurement (24 hours in advance), 3×10^4 cells were seeded into white 96-well plates (PerkinElmer, Waltham, Mass.), coated with 0.1% poly(D-lysine), and assays conducted as recommended by the manufacturer (Promega). Medium was aspirated and cells were loaded for two hours at room temperature with 2% GoSensor™ reagent diluted in CO2-independent media (ThermoFisher) supplemented with 2 mM L-glutamine and 10% FBS (assay medium). Luminescence was measured on a BioTek Synergy™ NEO (Winooski, Vt.) plate reader at room temperature. After a baseline measurement of 3-5 minutes, assay medium as a control or assay medium with agonist was manually added, and luminescence was measured for 30 minutes at ˜ 1/60 Hz. For compounds tested for Npr1 and Npr2 inhibition, the compounds were added after baseline measurements, and luminescence was read for 5 minutes before addition of agonist. Luminescence was then normalized to baseline measurements and plotted against the time. Ligand-induced changes of cGMP production were quantified by determining the area under the curve. To determine efficacy and potency of agonists, ligand-induced changes were normalized to medium only addition and plotted against the ligand concentration. […] To quantify […] of compounds, compound-induced changes of agonist-induced cGMP production were normalized to vehicle controls, plotted against compound concentration, and fit with a four-parameter logistic regression. Effects of A-71915 on basal mNpr1 activity were fitted with a bell-shaped regression (equation indicated below).
Because the Npr1 receptor is a ligand-dependent guanylate cyclase, measuring agonist-induced changes in intracellular cGMP levels was used to examine inhibition of Npr1. To measure the production of cGMP by Npr1, a circular permutated Firefly luciferase molecule which was functionally linked to the cGMP binding domain of human PDE5 (GloSensor™ technology pGS-40F) was used, as described in Example 1. This reporter molecule together with a luciferase substrate (GoSensor™ reagent) and a sensitive method for detection of luciferase activity (emitted light) permitted real-time measurement of cGMP levels in live cells (FIG. 1A). The cGMP sensor was expressed in HEK293 cells and luciferase activity after stimulation with the NO-donor sodium nitroprusside (SNP), which activates ubiquitously expressed soluble guanylate cyclases, was examined. […] Next, mNpr1 and the cGMP sensor were transiently expressed in HEK293 cells and agonist dependent receptor activation was examined. […] Next, the effects of A-71915 on mNpr1 were tested.
For Table 6, HEK-293 cells transiently expressing mNpr1 and pGS-40F were stimulated with 1 nM mNppb 5 minutes after addition of candidate compounds or A-71915 and luminescence was measured for 30 minutes. Inhibitors were titrated to calculate apparent IC50 values, as described in methods.

These results are taken from patent US11324725B2, “Compositions and methods for the inhibition of pruritus” (The United States of America, as represented by the …, priority 2017, dated 2022).

The term IC50 denotes the midpoint of a concentration-inhibition curve. Usually Ki stands for the dissociation constant of the complex between target and ligand, obtained from inhibition or displacement.

Turning to `COc1ccc(C2(C(=O)N3CCC4(CC3)c3nccn3-c3ccccc3CN4C)CC2)cc1` [JS-12, (1-(4-methoxyphenyl)cyclopropyl)(5-methyl-5,6-dihydrospiro[benzo[f]imidazo[1,2-a][1,4]diazepine-4,4′-piperidin]-1′-yl)methanone], the IC50 worked out at 13 ± 0.3 µM and the Ki was 0.26 ± 0.006 µM.

Take `CCC(CC)c1cc([C@H]2CN3CC[C@H]2C[C@@H]3CNS(=O)(=O)c2cccs2)nc(-c2ccncc2)n1` [JS-3, N-(((2R,4S,5R)-5-(6-(pentan-3-yl)-2-(pyridin-4-yl)pyrimidin-4-yl)quinuclidin-2-yl)methyl)thiophene-2-sulfonamide]: the IC50 came to 12 ± 1.8 µM and the Ki was 0.25 ± 0.036 µM.

As to `COc1cc(CN2CCC(C)(NC(C)=O)CC2)cc(-c2ccncc2)c1` [JS-4, N-(1-(3-methoxy-5-(pyridin-4-yl)benzyl)-4-methylpiperidin-4-yl)acetamide], the IC50 came out at 11 ± 3.4 µM and the Ki is 0.22 ± 0.07 µM.

In the case of `Cc1noc(C)c1-c1cc(-c2ccccc2Oc2ccccc2)cn2cncc12` [JS-5, 3,5-dimethyl-4-(6-(2-phenoxyphenyl)imidazo[1,5-a]pyridin-8-yl)isoxazole], the IC50 was determined as 20 ± 12 µM and the Ki is 0.42 ± 0.265 µM.

Take `Cc1nn2c(c1-c1ccccc1OCc1ccccc1)N(C(=O)Cc1ccc3c(c1)OCO3)CCC2` [JS-8, 2-(benzo[d][1,3]dioxol-5-yl)-1-(3-(2-(benzyloxy)phenyl)-2-methyl-6,7-dihydropyrazolo[1,5-a]pyrimidin-4(5H)-yl)ethan-1-one]: the IC50 amounted to 4.7 ± 0.3 µM and the inhibitory constant (Ki) was 0.1 ± 0.006 µM.

On to `CN(Cc1ccccc1)C(=O)c1cn2ccnc(-c3ccccc3)c2n1` [JS-14, N-benzyl-N-methyl-8-phenylimidazo[1,2-a]pyrazine-2-carboxamide], for which the IC50 was determined as 15.8 ± 16 µM and the inhibitory constant (Ki) is 0.32 ± 0.329 µM.

As for `Cc1nn2c(c1-c1ccccc1OCc1ccccc1)N(C(=O)Cc1ccccn1)CCC2` [JS-9, 1-(3-(2-(benzyloxy)phenyl)-2-methyl-6,7-dihydropyrazolo[1,5-a]pyrimidin-4(5H)-yl)-2-(pyridin-2-yl)ethan-1-one], the half-inhibitory concentration (IC50) amounted to 28 µM and the inhibition constant (Ki) is 0.57 ± 0.0004 µM.

As for `N#Cc1ccccc1CN1CCCC(C(=O)NCc2ccccc2)CCNC(=O)CC1` (stereo not shown) [JS-13, N-benzyl-1-(2-cyanobenzyl)-4-oxo-1,5-diazacycloundecane-8-carboxamide], the IC50 worked out at 10 ± 2.2 µM and the inhibitory constant (Ki) was 0.21 ± 0.046 µM.

On to `Cc1cc(CNC(=O)c2ccc3c(c2)n(CC2CC2)c(=O)n3C2CCCCC2)on1` [JS-11, 1-cyclohexyl-3-(cyclopropylmethyl)-N-((3-methylisoxazol-5-yl)methyl)-2-oxo-2,3-dihydro-1H-benzo[d]imidazole-5-carboxamide], for which the half-inhibitory concentration (IC50) is 4.9 ± 1.5 µM and the inhibition constant Ki was 0.1 ± 0.03 µM.

`Cc1nn2c(c1-c1ccccc1Oc1ccccc1)N(C(=O)Cc1ccc3c(c1)OCO3)CCC2` [JS-10, 2-(benzo[d][1,3]dioxol-5-yl)-1-(2-methyl-3-(2-phenoxyphenyl)-6,7-dihydropyrazolo[1,5-a]pyrimidin-4(5H)-yl)ethan-1-one]: the IC50 was determined as 15 ± 1.8 µM and the Ki is 0.31 ± 0.037 µM.

As to `COc1ccccc1-c1n[nH]c2ncc(C(=O)NCc3cccnc3)nc12` [JS-6, 3-(2-methoxyphenyl)-N-(pyridin-3-ylmethyl)-1H-pyrazolo[3,4-b]pyrazine-5-carboxamide], the IC50 was 82 ± 68 µM and the Ki is 1.69 ± 1.39 µM.
